In patent US20090069370A1, “AZACYCLYLISOQUINOLINONE AND ISOINDOLINONE DERIVATIVES AS HISTAMINE-3 ANTAGONISTS” (Wyeth, priority 2007, published 2009) one finds Ki and melting point data, which are given here for two molecules.

In series [1] the target is T1, Human Histamine H3 Receptor (Homo sapiens, UniProt Q9Y5N1).
T1 construct: expressed in transfected cells; host or cells: HEK293T cells, stably transfected; membrane preparation
Description: Methyl histamine binding in human histamine H3 receptor cell line. As to conditions: membranes of stably transfected HEK293T cells; radioligand 1 nM; Ki from IC50 by Cheng-Prusoff. The method, boiled down: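 Radioligand (1 nM final) displacement on membranes (10 μg) from stably transfected HEK293T cells, 1 h at 30 °C in 50 mM Tris pH 7.5, compounds ~100 μM–100 pM, nonspecific with 10 uM clobenpropit, filtration and scintillation counting. IC50 from four-parameter fit; Ki via Cheng-Prusoff.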

Each structure is given as a SMILES string.

T1 sequence (Q9Y5N1 whole entry): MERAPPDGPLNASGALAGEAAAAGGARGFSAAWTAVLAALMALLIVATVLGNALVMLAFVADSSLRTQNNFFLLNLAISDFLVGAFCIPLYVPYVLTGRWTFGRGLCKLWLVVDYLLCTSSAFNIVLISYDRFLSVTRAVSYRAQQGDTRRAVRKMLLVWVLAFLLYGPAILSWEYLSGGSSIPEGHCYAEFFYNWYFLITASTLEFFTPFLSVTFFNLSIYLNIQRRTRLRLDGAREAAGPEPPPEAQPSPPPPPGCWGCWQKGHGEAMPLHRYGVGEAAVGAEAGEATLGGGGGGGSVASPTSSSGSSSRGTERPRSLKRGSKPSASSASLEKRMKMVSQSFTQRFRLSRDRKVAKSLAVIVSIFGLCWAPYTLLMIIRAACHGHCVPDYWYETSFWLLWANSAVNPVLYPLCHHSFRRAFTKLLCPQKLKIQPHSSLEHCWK

In the case of `O=C(O)c1ccc(COc2ccc3c(c2)CCN(C2CCN(C4CCC4)CC2)C3=O)cc1` [Example 14, 4-({[2-(1-cyclobutylpiperidin-4-yl)-1-oxo-1,2,3,4-tetrahydroiso-quinolin-6-yl]oxy}methyl)benzoic acid], the melting point – broadly, the temperature, or range, at which the solid turns liquid – was 269 to 270 °C. Also, the Ki (as a rule, a measure of affinity in units of concentration, obtained from inhibition or displacement) in series [1] was in the range of 10.1 to 25 nM.

In the case of `O=C(O)c1ccc(Oc2ccc3c(c2)CCN([C@@H]2CCN(C4CCCC4)C2)C3=O)cc1` [Example 36, (R)-4-(2-(1-cyclopentylpyrrolidin-3-yl)-1-oxo-1,2,3,4-tetrahydro-isoquinolin-6-yloxy)benzoic acid], the melting point is 170 to 173 °C. In series [1], this molecule returned a Ki of 50.1 to 100 nM.
